Results published in US10857180B2, “Pharmaceutical composition for improving health, cure abnormalities and degenerative disease, achieve anti-aging effect of therapy and therapeutic effect on mammals and method thereof” (priority 2014, dated 2020).
Converted amounts (≈) assume the structure as drawn. Like-named read-outs stand apart in the source and are kept apart here.

Assays:
[1] = system: renal cell carcinoma (PA) cells; assay: Viability of PA tumor cells (trypan blue, crystal violet; live-dead); format: cell-based, rat; conditions: for dose for 50% live, 50% dead: natural isotope distribution; for IC50: Rattus norvegicus
Text: To make the analysis, the cell suspension, after it was exposed to the action of materials, in a volume of 20 mcl was mixed with 20 mcl of trypan blue solution and resuspended. The obtained solution was placed in a hemocytometer chamber for visual analysis and quantitative estimation of the cells. To make the quantitative estimation of the cells, they were separated from the substrate using Versene solution and counted by staining cells with trypan. A change in the color of a cell was indicative of the violation of intactness of the cell membrane, and the more pronounced was the coloration, the less viable the cell was. […] They are easily distinguishable from dark damaged cells and easily identified with ordinary light microscope.
Alluding to the above, staining the Cells with Crystal Violet and their Quantitative Analysis will be discussed. Utilization of this method of assessment in the experiment makes it possible to quantify cells classified according to the living-dead criterion. The method is based on statistical evaluation of cells able to adhere to the substrate (to the plastic plate), cells capable of further proliferation. The criterion of the evaluation is the degree of optical permeability of a well with the cell sediment for a luminous flux of a certain wavelength. Removal of the culture medium from the wells is also accompanied by removal of non-adhering and unstained cells from the substrate, and adhesion and staining of the residue left on the substrate provides a quantitative characteristic of the number of cells which are capable of further division and multiplication.
Alluding to the above, viable tumor cells capable of further proliferation were fixed to the plastic surface and stained blue (after they were exposed to the action of components with natural distribution of isotopes) using the dye powder dissolved in 70% methanol solution. After 10 minutes the dye was removed from the wells with a micropipette and the cells were thoroughly rinsed three times with clean running water. The cell sediment fixed by the dye was dissolved with ethanol followed by determination of its concentration (which is indicative of the number of viable cells) and fixed via multi-well spectrophotometer with an excitation wave 540 nm in length.
Analysis of the effect of all components on the renal cell carcinoma (PA) was conducted to determine the relationship between the amount of the preparation (concentration characteristics of the component) and the quantitative characteristics of the cells. Assessment of the effect of the components was carried out on 2 concentration models with 30 and 300 thousand original tumor cells. After the cells were cultured, cell suspensions were prepared in the plates with the culture medium and an effect of the preparations (in various concentrations) on the tumor cells was assessed. The experiment was started with the concentration of 10 mg of the active substance per 1 ml of the solvent (saline with 5% glucose).
After the action of components with natural isotope distribution on PA tumor cells (in all 9 concentration dilutions of the preparations), they were stained with trypan blue. Staining cells (after the effect of the components) in blue is indicative of the respiratory impairment of the cells, which allows of classifying them as non-viable tumor units. The part of the cells remained uncolored is characterized as viable with the ability for further proliferation. […] The assessment was performed on 14 plates with 300 thousand cells in each well by counting the number of viable cells in the Goryaev chamber. Quantitative analysis of the cells was performed visually every 10 hours of the experiment.

[2] = system: normal rat kidney cells (NRK cell line); assay: Effect on normal rat kidney cells versus Doxorubicin; conditions: for live cells: 16 mcg/ml
Text: An immortalized cell line is a stable, capable of unlimited proliferation cell line that consists of cells with […] in culture.

[3] = system: stem cells derived from rat fibroblasts (RF); format: cell-based
[4] = system: normal rat kidney cells (NRK cell line); assay: Scratch assay, NRK cells; format: cell-based; conditions: Doxorubicin 15 ng/ml; control 30 hours
Description: (§2) The cells of A-549, A-431, NRK, HaCaT, MM-4, normal fibroblasts (derived from the Bank of Cell Lines from human and animal tissues, R. E. Kavetsky Institute of Experimental Pathology, Oncology and Radiobiology, National Academy of Sciences of Ukraine) were cultured in complete culture medium RPMI 1640/DMEM (PAA, Austria) (depending on the cell type) supplemented with 10% fetal calf serum (PAA, Austria) and incubated in 5% CO2 humidified atmosphere at 37° C. The culture medium was replaced in 2 to 3 days and the cells were passaged in 4 to 5 days.
(§3) Analysis of the influence of the components under study on the cell migration rate was performed using the scratch assay method. Cells (5×10^4/well) were seeded into the wells of a 12-well plate in 2 repeats in RPMI-1640/DMEM culture medium supplemented with 10% PBS, 40 mcg/ml of gentamicin and incubated in 5% CO2 humidified atmosphere at 37° C. for 24 hours.
(§4) The plate was incubated in a CO2 incubator for additional 48 hours. After the cells formed a dense monolayer it was damaged (by making a “scratch”) and the growth medium was replaced to remove cell debris and smooth the edges of the “scratch.” The rate of cell migration was analyzed using an inverted microscope and by photographing cells in the area of injury. The migration activity of cells was fixed at several time points (depending on the cell line analyzed). The microphotomicrographs were analyzed and the cell incubation time needed to restore the monolayer was determined for all experimental groups.

[5] = system: healthy human skin cells (HaCaT cell line); assay: Scratch assay, HaCaT cells; format: cell-based; conditions: Doxorubicin 15 ng/ml and 5 ng/ml
Description: as §2
(§5) Analysis of the influence of the components under study on the cell migration rate was performed using the scratch assay method. […]
(§6) The plate was incubated in a CO2 incubator for additional 48 hours. After the cells formed a dense monolayer it was damaged (by making a “scratch”) and the growth medium was replaced to remove cell debris and smooth the edges of the “scratch.” The rate of cell migration was analyzed using an inverted microscope and by photographing cells in the area of injury. The migration activity of cells was fixed at several time points (depending on the cell line analyzed). The microphotomicrographs were analyzed and the cell incubation time needed to restore the monolayer was determined for all experimental groups. […]

[6] = system: human melanoma tumor cells (MM-4 cell line); assay: Scratch assay, MM-4 cells; format: cell-based; conditions: Doxorubicin at 2 concentrations (0.1 and 0.01 mcg/ml)
Description: as §2, §5, §6

A-549 cell line = assay: Scratch assay, A-549 cells
Description: as §2, §3, §4

[7] = system: human epidermoid carcinoma cells (A-431 cell line); assay: Scratch assay, A-431 cells
Description: as §2, §5, §6

[8] = system: renal cell carcinoma (PA) cells; assay: Immunocytochemistry (H-Score) of PA cells; format: cell-based, rat
Description: When making the immunocytochemistry (ICC) assay, cells on microscope glasses (cytospin preparations) were fixed in the solution (methanol+acetone 1:1) for 2 hours at t 20° C. and incubated with 1% solution of bovine serum albumin (BSA) for 20 minutes. Then the monoclonal antibodies—CD44 (Diagnostic BioSystems), E-cadherin (ThermoScientific), N-cadherin (NeoMarker, BioLegend)—were applied for 60 minutes, after which the Poly Vue imaging system conjugated with peroxidase was used and the enzyme activity was detected using diaminobenzidine (ThermoScientific) as a substrate.
(§1) After the immunocytochemical reaction the preparations were washed with water and counterstained with hematoxylin-eosin (for 15-30 seconds). The results were analyzed by counting cells with expression (brown colored cells), using a light microscope and were assessed using the classical H-Score method: S=1×A+2×B+3×C, where S is the H-Score index giving a range of 0 (protein is not detected) to 300 (high-level expression in 100% of the cells); A is the percentage of weakly stained cells, B is the percentage of moderately stained cells and C is the percentage of strongly stained cells.

[9] = system: normal rat kidney cells (NRK line); assay: Immunocytochemistry of NRK cells; format: cell-based
Description: When making the immunocytochemistry (ICC) assay, cells on microscope glasses (cytospin preparations) were fixed in the solution (methanol+acetone 1:1) for 2 hours at t 20° C. and incubated with 1% solution of bovine serum albumin (BSA) for 20 minutes. Then the monoclonal antibodies-CD44 (Diagnostic BioSystems), E-cadherin (ThermoScientific), N-cadherin (NeoMarker, BioLegend), SLUG (GeneTex)—were applied for the time period specified by the manufacturer (30 to 60 minutes), after which the Poly Vue imaging system conjugated with peroxidase was used and the enzyme activity was detected using diaminobenzidine (ThermoScientific) as a substrate. After the immunocytochemical reaction the preparations were washed with water and counterstained with hematoxylin-eosin (for 15 to 30 seconds).
as §1, with “The” for “After the immunocytochemical reaction the preparations were washed with water and counterstained with hematoxylin-eosin (for 15-30 seconds). The”, “cells)” for “cells),”, “microscope,” for “microscope”, “staining” for “stained”

[10] = Zn sulfate 80 mcg/ml, trypan blue

## [Cl-].[K+] [K]
[1]
  dose for 50% live, 50% dead: about 2 mg

## COc1cccc2c1C(=O)c1c(O)c3c(c(O)c1C2=O)C[C@@](O)(C(=O)CO)C[C@@H]3O[C@H]1C[C@H](N)[C@H](O)[C@H](C)O1 [Doxorubicin]
[1]; Doxorubicin 0.64 mcg/ml
  dead cells: 39%
  live cells: 61%
[1]; Doxorubicin 16 mcg/ml
  dead cells: 95%
  live cells: 5%
[1]; crystal violet and trypan blue, read-out: concentration that kills 50% of the tumor cells
  IC50: 3.2 µg/mL (≈ 5.89 µM)
[1]; read-out: dose that killed 50% of tumor cells
  IC50: 3.2 µg/mL (≈ 5.89 µM)
[2]; 3 to 0.01 mcg/ml
  effect on normal NRK cells: causing death of normal NRK cells
[2]; within 30 min
  live cells: live cells are virtually absent
[2]; within 48 hours
  live cells: live cells are absent
[2]; 400 to 16 mcg/ml, 48 hours
  effect on normal NRK cells: complete death
[3]; Doxorubicin 15 ng/ml or 5 ng/ml
  time of restoration of the cell interval: > 72 h
[3]; Doxorubicin 15 ng/ml, within 96 hours after administration
  death of cells: 95%
[4]
  time of restoration of the damaged monolayer: 72 h
[5]
  cell migration rate: inhibition of the cell migration rate
[6]
  period of closing of the gap: 48 h
A-549 cell line; Doxorubicin 0.02 mcg/ml
  time of restoration of the cell monolayer: 60 h
A-549 cell line; Doxorubicin 0.2 mcg/ml
  time of restoration of the cell monolayer: < 24 h
A-549 cell line; Doxorubicin (2 mcg/ml per FIG. 113-116)
  time of full restoration of the cell monolayer: 24 h
[7]; Doxorubicin 0.02 mg/ml
  time for the cell monolayer repair: 48 h
[7]; Doxorubicin 0.1 mcg/ml, control 48 hours
  time to close up the cellular gap: 45 h

## O=S(=O)([O-])[O-].[64Zn+2] [^64Zn—Z2]
[8]; 3.2 mcg/ml
  CD44 marker positive cells, H-Score scale: 118 units
[8]; ^64Zn—Z2 3.2 and 0.128 mcg/ml
  N-cadherin level: does not change
  number of E-cadherin-positive cells: grows
[8]; dose D1 0.128 mcg/ml
  E-cadherin-positive cells, H-Score scale: 300
[9]
  phenotype of normal cells: has not changed

## O=S(=O)([O-])[O-].[Zn+2] [Zn]
[1]
  dose for 50% kill, times as high as Doxorubicin EBEWE: 100 times
[1]; Zn sulfate 16 mcg/ml
  dead tumor cells: 7%
  live tumor cells: 93%
[1]; [10]
  dead tumor cells: 75%
  live tumor cells: 25%

## O=S(=O)([O-])[O-].[Mg+2] [Mg]
[1]
  dose for 50% kill, times as high as Doxorubicin EBEWE: 1600 times
  dose for 50% live, 50% dead: about 5 mg
